Values quoted from earlier work, collected in PubChem BioAssay AID1259409 (Chemical Carcinogenesis Research Information System (CCRIS), 2018).

Test system: rodent chemically induced tumor inhibition, incidence and multiplicity
Assay: CCRIS tumor inhibitor studies
Conditions: Dose [Inhibitor]: 0

N#Cc1ccc(C(c2ccc(C#N)cc2)n2cncn2)cc1
tumour outcome (control, treated, inhibition, significance) (Carcinogen: NONE, 0.1 MG/KG BW/D FOR 104 WK (STUDY DURATION: 104 WK), Route [Inhibitor]: NOT SPECIFIED, Species: RAT, Strain/Sex: SPRAGUE-DAWLEY/FEMALE, Target Tissue: Type of Lesion: REPRODUCTIVE TRACT (DISTAL): BENIGN GRANULAR CELL TUMOR, Promoter: NONE): 7/60 (12%), 0/60 (0%), 100%, not calculated
tumour outcome (control, treated, inhibition, significance) (Carcinogen: NONE, 1 MG/KG BW/D FOR 104 WK (STUDY DURATION: 104 WK), Route [Inhibitor]: NOT SPECIFIED, Species: RAT, Strain/Sex: SPRAGUE-DAWLEY/FEMALE, Target Tissue: Type of Lesion: REPRODUCTIVE TRACT (DISTAL): BENIGN GRANULAR CELL TUMOR, Promoter: NONE): 7/60 (12%), 0/60 (0%), 100%, not calculated
tumour outcome (control, treated, inhibition, significance) (Carcinogen: NONE, 10 MG/KG BW/D FOR 104 WK (STUDY DURATION: 104 WK), Route [Inhibitor]: NOT SPECIFIED, Species: RAT, Strain/Sex: SPRAGUE-DAWLEY/FEMALE, Target Tissue: Type of Lesion: REPRODUCTIVE TRACT (DISTAL): BENIGN GRANULAR CELL TUMOR, Promoter: NONE): 7/60 (12%), 0/60 (0%), 100%, not calculated

c1ccc2c(c1)Oc1ccccc1O2
tumour outcome (control, treated, inhibition, significance) (Carcinogen: 7,12-DIMETHYLBENZ[A]ANTHRACENE, 57-97-6, 17 NMOL 2/WK APPLIED 1 HR PRIOR TO EACH PROMOTER DOSE FOR 20 WK (STUDY DURATION: 21 WK), Route [Inhibitor]: DERMAL, Species: MOUSE, Target Tissue: Type of Lesion: SKIN: TUMOR, Dose [Carcinogen]: 390 NMOL ONCE, Promoter: 12-O-TETRADECANOYLPHORBOL-13-ACETATE, 16561-29-8): 100%, 73%, 27%, not calculated

C=C1C/C(=C/C)C(=O)O[C@@H]2CCN3CC=C(COC(=O)[C@@]1(O)CO)[C@H]23
tumour outcome (control, treated, inhibition, significance) (1 MG/KG IN 0.1 M PHOSPHATE BUFFER 5 D/WK FOR 105 WK (STUDY DURATION: 105 EK), Route [Inhibitor]: GAVAGE, Species: MOUSE, Strain/Sex: B6C3F1/MALE, Target Tissue: Type of Lesion: LIVER: HEPATOCELLULAR ADENOMA OR CARCINOMA): 36/50 (72%), 23/50 (46%), 36%, p<0.05
tumour outcome (control, treated, inhibition, significance) (3 MG/KG IN 0.1 M PHOSPHATE BUFFER 5 D/WK FOR 105 WK (STUDY DURATION: 105 WK), Route [Inhibitor]: GAVAGE, Species: MOUSE, Strain/Sex: B6C3F1/FEMALE, Target Tissue: Type of Lesion: LIVER: HEPATOCELLULAR ADENOMA OR CARCINOMA): 16/49 (33%), 0/50 (0%), 100%, p<0.01

CC(C#Cc1ccc(Oc2ccc(F)cc2)o1)N(O)C(N)=O (configuration not stated)
tumour outcome (control, treated, inhibition, significance) (Carcinogen: 4-(METHYLNITROSAMINO)-1-(3-PYRIDYL)-1-BUTANONE, 64091-91-4, 74 MG/KG DIET FOR DURATION OF STUDY BEGINNING 2 WK PRIOR TO CARCINOGEN TREATMENT (STUDY DURATION: 25 WK), Route [Inhibitor]: ORAL, Species: MOUSE, Strain/Sex: STRAIN-A/FEMALE, Target Tissue: Type of Lesion: LUNG: TUMOR, Dose [Carcinogen]: 9.1 MG/MOUSE IN DRINKING WATER FOR 7 WK, Promoter: NONE USED): 29/29 (100%), 20/25 (80%), 20%, p<0.001
